Laboratory results published in PubChem BioAssay AID2060900 (Molecular Pharmacology Branch, DTP, NCI, 2025).

Test system: 521955-158-R2-J5-PDC complex spheroids, viability
Experiment: Anticancer human tumor 521955-158-R2-J5-PDC patient-derived pancreatic carcinoma cell line growth inhibition [RAS]
Conditions: for IC50: curve of first compound; for viability, T/C: stronger effect = lower value
Method in brief: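 Tumour cells grown as complex spheroids with HUVEC endothelial cells and mesenchymal stem cells, treated with RAS pathway inhibitor combinations. Each agent spans half-log steps from near clinical Cmax, or 10 microM where Cmax is unknown.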

[1] = second compound 0.000949 µM, first compound 0.0316 µM
[2] = second compound 0.000949 µM, first compound 0.1 µM
[3] = second compound 0.000949 µM, first compound 0.316 µM
[4] = second compound 0.000949 µM, first compound 1 µM
[5] = second compound 0.000949 µM, first compound 3.16 µM
[6] = second compound 0.000949 µM, first compound 10 µM
[7] = second compound 0.003 µM, first compound 0.0316 µM
[8] = second compound 0.003 µM, first compound 0.1 µM
[9] = second compound 0.003 µM, first compound 0.316 µM
[10] = second compound 0.003 µM, first compound 1 µM
[11] = second compound 0.003 µM, first compound 3.16 µM
[12] = second compound 0.003 µM, first compound 10 µM
[13] = second compound 0.00949 µM, first compound 0.0316 µM
[14] = second compound 0.00949 µM, first compound 0.1 µM
[15] = second compound 0.00949 µM, first compound 0.316 µM
[16] = second compound 0.00949 µM, first compound 1 µM
[17] = second compound 0.00949 µM, first compound 3.16 µM
[18] = second compound 0.00949 µM, first compound 10 µM
[19] = second compound 0.03 µM, first compound 0.0316 µM
[20] = second compound 0.03 µM, first compound 0.1 µM
[21] = second compound 0.03 µM, first compound 0.316 µM
[22] = second compound 0.03 µM, first compound 1 µM
[23] = second compound 0.03 µM, first compound 3.16 µM
[24] = second compound 0.03 µM, first compound 10 µM
[25] = second compound 0.0949 µM, first compound 0.0316 µM
[26] = second compound 0.0949 µM, first compound 0.1 µM
[27] = second compound 0.0949 µM, first compound 0.316 µM
[28] = second compound 0.0949 µM, first compound 1 µM
[29] = second compound 0.0949 µM, first compound 3.16 µM
[30] = second compound 0.0949 µM, first compound 10 µM
[31] = second compound 0.3 µM, first compound 0.0316 µM
[32] = second compound 0.3 µM, first compound 0.1 µM
[33] = second compound 0.3 µM, first compound 0.316 µM
[34] = second compound 0.3 µM, first compound 1 µM
[35] = second compound 0.3 µM, first compound 3.16 µM
[36] = second compound 0.3 µM, first compound 10 µM
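Further: compound exposure lasted seven days before the viability read.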
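Wherever viability, T/C is given: spheroids also contain HUVEC endothelial cells and mesenchymal stem cells as stroma.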

Question: CC(=O)OC12COC1CC(O)C1(C)C(=O)C(O)C3=C(C)C(OC(=O)C(O)C(NC(=O)OC(C)(C)C)c4ccccc4)CC(O)(C(OC(=O)c4ccccc4)C21)C3(C)C (stereo unspecified) + CCn1c(-c2cccnc2C(C)OC)c2c3cc(ccc31)N1CCOC(CC(NC(=O)C(C(C)C)N(C)C(=O)C3(F)CCN(C(=O)C#CC(C)(C)N(C)C)CC3)C(=O)N3CCCC(N3)C(=O)OCC(C)(C)C2)C1 was tested. Which IC50 (second compound 0.000949 µM) did it give?
Answer: < 0.0316 µM

Question: And the IC50 (second compound 0.003 µM)?
Answer: < 0.0316 µM

Question: What about the IC50 (second compound 0.00949 µM) of the same compound?
Answer: < 0.0316 µM

Question: What about the IC50 (second compound 0.03 µM) of the same compound?
Answer: < 0.0316 µM

Question: What about the IC50 (second compound 0.0949 µM) of the same compound?
Answer: < 0.0316 µM

Question: What about the IC50 (second compound 0.3 µM) of the same compound?
Answer: < 0.0316 µM

Question: And the viability, T/C [1]?
Answer: 47.5%

Question: And the viability, T/C [2]?
Answer: 23%

Question: What about the viability, T/C [3] of the same compound?
Answer: 24.6%

Question: What about the viability, T/C [4] of the same compound?
Answer: 22%

Question: And the viability, T/C [5]?
Answer: 28%

Question: What about the viability, T/C [6] of the same compound?
Answer: 40.4%

Question: What about the viability, T/C [7] of the same compound?
Answer: 31.7%

Question: And the viability, T/C [8]?
Answer: 25.1%

Question: What about the viability, T/C [9] of the same compound?
Answer: 27.6%

Question: What about the viability, T/C [10] of the same compound?
Answer: 23.8%

Question: And the viability, T/C [11]?
Answer: 28.9%

Question: What about the viability, T/C [12] of the same compound?
Answer: 42.2%

Question: And the viability, T/C [13]?
Answer: 33.5%

Question: What about the viability, T/C [14] of the same compound?
Answer: 24.6%

Question: And the viability, T/C [15]?
Answer: 23.6%

Question: And the viability, T/C [16]?
Answer: 25.8%

Question: What about the viability, T/C [17] of the same compound?
Answer: 40%

Question: And the viability, T/C [18]?
Answer: 38.1%

Question: And the viability, T/C [19]?
Answer: 35.7%

Question: And the viability, T/C [20]?
Answer: 20.3%

Question: And the viability, T/C [21]?
Answer: 22.8%

Question: And the viability, T/C [22]?
Answer: 22.9%

Question: What about the viability, T/C [23] of the same compound?
Answer: 32.3%

Question: What about the viability, T/C [24] of the same compound?
Answer: 41.6%

Question: What about the viability, T/C [25] of the same compound?
Answer: 39.1%

Question: And the viability, T/C [26]?
Answer: 26.8%

Question: And the viability, T/C [27]?
Answer: 19.3%

Question: And the viability, T/C [28]?
Answer: 25.5%

Question: What about the viability, T/C [29] of the same compound?
Answer: 38.2%

Question: And the viability, T/C [30]?
Answer: 41.1%

Question: And the viability, T/C [31]?
Answer: 32.7%

Question: What about the viability, T/C [32] of the same compound?
Answer: 22.7%

Question: What about the viability, T/C [33] of the same compound?
Answer: 23.4%

Question: And the viability, T/C [34]?
Answer: 32.3%

Question: What about the viability, T/C [35] of the same compound?
Answer: 41.9%

Question: And the viability, T/C [36]?
Answer: 39.9%

Question: Which results are given for CC1(O)CCCC1n1c(=O)c(C(F)F)cc2cnc(NC3CCN(S(C)(=O)=O)CC3)nc21 (stereo unspecified) + CCn1c(-c2cccnc2C(C)OC)c2c3cc(ccc31)N1CCOC(CC(NC(=O)C(C(C)C)N(C)C(=O)C3(F)CCN(C(=O)C#CC(C)(C)N(C)C)CC3)C(=O)N3CCCC(N3)C(=O)OCC(C)(C)C2)C1?
Answer: IC50 (second compound 0.000949 µM): 4.9 µM; IC50 (second compound 0.003 µM): 5.09 µM; IC50 (second compound 0.00949 µM): 4.91 µM; IC50 (second compound 0.03 µM): 4.99 µM; IC50 (second compound 0.0949 µM): 4.43 µM; IC50 (second compound 0.3 µM): 3.76 µM; viability, T/C [1]: 68.5%; viability, T/C [2]: 66.1%; viability, T/C [3]: 61.6%; viability, T/C [4]: 59.4%; viability, T/C [5]: 103%; viability, T/C [6]: 14.8%; viability, T/C [7]: 89.5%; viability, T/C [8]: 67.8%; viability, T/C [9]: 49.5%; viability, T/C [10]: 82.7%; viability, T/C [11]: 89.2%; viability, T/C [12]: 13.5%; viability, T/C [13]: 88.1%; viability, T/C [14]: 71.1%; viability, T/C [15]: 60.2%; viability, T/C [16]: 62.1%; viability, T/C [17]: 93.5%; viability, T/C [18]: 9.48%; viability, T/C [19]: 89.7%; viability, T/C [20]: 77.1%; viability, T/C [21]: 47.7%; viability, T/C [22]: 76.1%; viability, T/C [23]: 78.9%; viability, T/C [24]: 13.6%; viability, T/C [25]: 67.6%; viability, T/C [26]: 61.1%; viability, T/C [27]: 47.3%; viability, T/C [28]: 63.1%; viability, T/C [29]: 90.5%; viability, T/C [30]: 11.6%; viability, T/C [31]: 60.8%; viability, T/C [32]: 37.9%; viability, T/C [33]: 45.5%; viability, T/C [34]: 58%; viability, T/C [35]: 88.2%; viability, T/C [36]: 9.67%

Question: For NC1c2ccccc2OC12CCN(c1cnc3c(N4CCCc5ncccc54)n[nH]c3n1)CC2 (stereo unspecified) + CCn1c(-c2cccnc2C(C)OC)c2c3cc(ccc31)N1CCOC(CC(NC(=O)C(C(C)C)N(C)C(=O)C3(F)CCN(C(=O)C#CC(C)(C)N(C)C)CC3)C(=O)N3CCCC(N3)C(=O)OCC(C)(C)C2)C1, which IC50 (second compound 0.000949 µM) is on record?
Answer: 4.5 µM

Question: And the IC50 (second compound 0.003 µM)?
Answer: > 10 µM

Question: What about the IC50 (second compound 0.00949 µM) of the same compound?
Answer: 0.987 µM

Question: What about the IC50 (second compound 0.03 µM) of the same compound?
Answer: > 10 µM

Question: What about the IC50 (second compound 0.0949 µM) of the same compound?
Answer: 1.2 µM

Question: What about the IC50 (second compound 0.3 µM) of the same compound?
Answer: 0.129 µM

Question: And the viability, T/C [1]?
Answer: 62.7%

Question: And the viability, T/C [2]?
Answer: 61.4%

Question: What about the viability, T/C [3] of the same compound?
Answer: 53.5%

Question: And the viability, T/C [4]?
Answer: 52.3%

Question: And the viability, T/C [5]?
Answer: 50.2%

Question: And the viability, T/C [6]?
Answer: 50%

Question: And the viability, T/C [7]?
Answer: 64%

Question: And the viability, T/C [8]?
Answer: 51%

Question: What about the viability, T/C [9] of the same compound?
Answer: 58.8%

Question: And the viability, T/C [10]?
Answer: 55.4%

Question: And the viability, T/C [11]?
Answer: 52.7%

Question: What about the viability, T/C [12] of the same compound?
Answer: 49.8%

Question: What about the viability, T/C [13] of the same compound?
Answer: 53.7%

Question: And the viability, T/C [14]?
Answer: 48.1%

Question: And the viability, T/C [15]?
Answer: 51.8%

Question: What about the viability, T/C [16] of the same compound?
Answer: 52.5%

Question: And the viability, T/C [17]?
Answer: 53.2%

Question: What about the viability, T/C [18] of the same compound?
Answer: 43.6%

Question: What about the viability, T/C [19] of the same compound?
Answer: 60.3%

Question: And the viability, T/C [20]?
Answer: 56.8%

Question: And the viability, T/C [21]?
Answer: 44.2%

Question: What about the viability, T/C [22] of the same compound?
Answer: 51.3%

Question: And the viability, T/C [23]?
Answer: 58.9%

Question: And the viability, T/C [24]?
Answer: 47.1%

Question: What about the viability, T/C [25] of the same compound?
Answer: 52.9%

Question: And the viability, T/C [26]?
Answer: 54.4%

Question: What about the viability, T/C [27] of the same compound?
Answer: 43.3%

Question: And the viability, T/C [28]?
Answer: 49.7%

Question: What about the viability, T/C [29] of the same compound?
Answer: 56.5%

Question: What about the viability, T/C [30] of the same compound?
Answer: 45.7%

Question: What about the viability, T/C [31] of the same compound?
Answer: 51.3%

Question: And the viability, T/C [32]?
Answer: 46.3%

Question: And the viability, T/C [33]?
Answer: 51.9%

Question: And the viability, T/C [34]?
Answer: 51.3%

Question: And the viability, T/C [35]?
Answer: 49.5%

Question: What about the viability, T/C [36] of the same compound?
Answer: 42.9%
